Measurements from US11464784B2, “Inhibition of aminocylase 3 (AA3) in the treatment of cancer” (THE REGENTS OF THE UNIVERSITY OF CALIFORNIA, priority 2017, dated 2022).

T1: mAA3 (Mus musculus, UniProt Q91XE4)
T1 sequence (Q91XE4 1-318): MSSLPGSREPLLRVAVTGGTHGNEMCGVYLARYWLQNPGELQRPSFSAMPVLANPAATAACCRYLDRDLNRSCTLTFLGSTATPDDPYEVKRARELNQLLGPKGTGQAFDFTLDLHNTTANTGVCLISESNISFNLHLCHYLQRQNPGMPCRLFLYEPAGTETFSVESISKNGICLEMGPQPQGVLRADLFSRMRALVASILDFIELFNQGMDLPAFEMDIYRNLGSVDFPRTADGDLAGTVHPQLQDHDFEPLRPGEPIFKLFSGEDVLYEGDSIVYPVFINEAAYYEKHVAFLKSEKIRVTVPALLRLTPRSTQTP


What was measured:
[1] = test system: pancreatic cancer cell lines PANC-1, MIA PaCa-2, BxPC-3; assay: MTT cell viability, pancreatic cancer cell lines; assay type: cell-based, human; conditions: for efficiency for pancreatic cell lines: lines expressing either wild type (wt) or mutant (mut) KRas
From the text: (§1) Human colon cancer cell lines COLO 205, HCT 116, LS 513 (all ATCC), primary colon epithelial cells (Cell Biologics), pancreatic cancer cell lines PANC-1, MIA PaCa-2, BxPC-3, and normal pancreatic duct epithelial cells (UCLA collection) were used in experiments. COLO 205, LS 513, BxPC-3 cells were cultivated in RPMI 1640 medium with 10% FBS, HCT 116 cells were cultivated in McCoy's 5A medium with 10% FBS, PANC-1 and MIA PaCa-2 cell lines were cultivated in DMEM medium with 10% FBS, and normal colon and pancreatic cells were maintained in Human Epithelial Cell Medium (Cell Biologics).
(§2) HCC cell lines HepG2, HuH7, primary hepatocytes, colon cell lines COLO 205, HCT 116, LS 513, primary colon epithelial cells, pancreatic cancer cell lines PANC-1, MIA PaCa-2, BxPC-3, and normal pancreatic duct epithelial cells were seeded in 96-well plates at a density 10,000 cells per well in complete medium. Next day medium was changed to medium containing 1% FBS and an AA3 inhibitor (3-100 μM). 24 h later cell viability was determined using the MTT (3-(4,5-dimethylthiazol-2-yl)-2,5-diphenyltetrazolium bromide) cell viability assay. Cells were incubated during 4 h at 37° C. with 150 μl fresh media containing 0.5 mg/ml MTT. Then 50 μl of 20% SDS in 25 mM HCl was added to each well, incubated for 4 h and the optical density at 570 nm was measured on a VMax Kinetic Microplate Reader (Molecular Devices, Sunnyvale, Calif.).

[2] = test system: normal pancreatic duct epithelial cells; assay: MTT cell viability, normal pancreatic cells; assay type: cell-based, human; conditions: for toxicity for normal vs cancer cell lines: pancreatic (FIG. 25)
From the text: as §1, §2

[3] = test system: colon cancer cell lines COLO 205, HCT 116, LS 513; assay: MTT cell viability, colon cancer cell lines; assay type: cell-based, human
From the text: as §1, §2

HuH7 cells [4] = assay: Levels of FC and NAFC in HuH7 cells (LC/MS); assay type: cell-based, human; conditions: for FC level decreased by / level of NAFC: HuH7, 10-20 μM inhibitor, 24 h, vs untreated; for [FC]/[NAFC] ratio: HuH7 treated cells (untreated ~2.8)
Description: (§3) HUH7 and HepG2 cells were seeded in 6-well plates at a density 250,000 cells per well in complete medium. Next day the medium was changed to 2 ml DMEM with 1% FBS containing a 10-20 μM AA3 inhibitor. After 24 h incubation, the medium was collected, concentrated 10 times on a vacuum concentrator; 10 μl aliquots were used for quantitation by LC/MS and LC/MS/MS-MRM. The cells were trypsinized, washed in PBS and centrifuged at 2,000 g for 10 min. Then cell pellet was lysed on ice in 50 μl of 20 mM Tris-HCl, pH 7.5, containing 1% dodecyl maltoside (DDM) and 1× protease inhibitor cocktail (Sigma/Aldrich). After centrifugation (14,000 g, 10 min) the supernatants were diluted 4 times with methanol and centrifuged (14,000 g, 10 min), then the supernatants were diluted 10 times with water, and 10 μl aliquots were used for quantitation by LC/MS and LC/MS/MS-MRM as described above expect electrospray ionization was used with an Agilent 6460 triple quadrupole mass spectrometer.

HuH7 cells [5] = assay: MTT cell viability, HuH7; assay type: cell-based, human; conditions: HuH7, within the micromolar range, 24 h
Description: as §2
(§4) To study the effect of AA3 silencing, HepG2 and HUH7 cells seeded in 96-well plates were transfected with 2 pmol AA3 siRNA using the Lipofectamine RNAiMAX reagent as per the manufacturer protocol. Cell viability was measured in the MTT assay 48 h later as described.

HepG2 cells [6] = assay: Levels of FC and NAFC in HepG2 cells (LC/MS); assay type: cell-based, human; conditions: for FC level / level of NAFC: HepG2, 10-20 μM inhibitor, 24 h, vs untreated; for [FC]/[NAFC] ratio: HepG2 treated cells (untreated ~8.4)
Description: as §3

[7] = test system: primary colon epithelial cells; assay: MTT cell viability, normal colon cells; assay type: cell-based, human; conditions: colon (FIG. 24)
From the text: as §1
as §2, with “Cells were incubated during 4 h at 37° C. with 150 μl fresh media containing 0.5 mg/ml MTT.” left out

[8] = test system: normal primary hepatocytes; assay: MTT cell viability, normal primary hepatocytes; assay type: cell-based; conditions: inhibitor 10: 0-50 μM range; inhibitor 11: in comparison with HCC cell lines
Description: as §2, §4

[9] = test system: membrane associated Ras in HepG2 cells; assay: Membrane associated Ras in HepG2 cells (immunoblot); assay type: cell-based, human; conditions: HepG2, 24 h
Description: Cultured HCC cells and primary hepatocytes were washed with PBS buffer, treated with 0.25% Trypsin-EDTA solution (Corning) and precipitated at 1,000 rpm for 5 min. For protein extraction, HCC cells were lysed on ice by vortexing every 5 min for 30 min in RIPA buffer containing 20 mM Tris-HCl (pH 7.5), 150 mM NaCl, 5 mM EDTA, 1% Triton X-100, 0.5% sodium deoxycholate, 0.1% SDS, and 1× Halt protease inhibitor cocktail (Thermo Scientific, Waltham, Mass.). Prenylated Ras other membrane associated proteins were extracted from HCC cells using a Mem-PER Plus Kit (Thermo Scientific) according to the manufacturer's protocol. […]
HepG2 cells were seeded in 6-well plates at a density 250,000 cells per well. […] 24 h later cells were collected, washed with PBS and the membrane associated Ras proteins were extracted as described above, resolved on SDS-PAGE, and detected with the anti-Ras antibody (EMD Millipore).
To study the effect of AA3 suppression on Ras membrane association, HepG2 and HuH7 cells seeded onto 6-well plates at the same density, were transfected with 50 pmol ACY3 (AA3) Silencer Select Pre-designed siRNA (Invitrogen, Grand Island, N.Y.) using the Lipofectamine RNAiMAX reagent (Invitrogen) following the manufacturer protocol. […] After 48 h incubation, membrane associated proteins were extracted and membrane associated Ras was determined by immunoblotting as described above.

HepG2 cells [10] = assay: MTT cell viability, HepG2; assay type: cell-based, human; conditions: HepG2, within the micromolar range, 24 h
Description: as §2, §4

mAA3 = molecular target: T1, mAA3; conditions: substrate of mAA3; cited from earlier work
[11] = substrate: CC(=O)C/C(C)=C/CC/C(C)=C/CC/C(C)=C/CC/C(C)=C/CN[C@@H](CS)C(=O)O; assay: Deacetylation of NAFC and NAGGC by human AA3; assay type: biochemical; conditions: other: substrate of human AA3; pH 7.5
Description: (§5) AA3 activity was measured using a previously described fluorescence assay. Human purified AA3 (1 μg), rat AA1 (1 μg) or immunoaffinity purified AA3 from HepG2 and HuH7 cells were assayed for 30 min at […] in […] of 50 mM sodium phosphate buffer, pH 7.5, containing 1 mM NAFC or NAGGC both from Cayman Chemical (Ann Arbor, Mich.). Then 100 μl of the reaction mixture was added to 1 ml of 50 mM sodium phosphate buffer containing 1 mM fluorescamine, and fluorescence was measured (390 nm excitation, 475 nm emission).
(§6) To study the deacetylation of NAFC and NAGGC mediated by AA3, 50 μl aliquots from the reaction assays were injected onto Agilent Eclipse Plus C18 reverse phase HPLC column equilibrated with 0.1% formic acid, and eluted with acetonitrile/0.1% formic acid gradient (0-90%, 20 min). The effluent from the column was passed to an Ionspray ion source connected to a triple quadrupole mass-spectrometer (MS) API III+(PerkinElmer, Boston, Mass.). NAFC and NAGGC (Cayman Chemical) were used for MS calibration.

[12] = substrate: CC(=O)CC(C)=CCCC(C)=CCCC(C)=CCN[C@@H](CS)C(=O)O; assay: Deacetylation of NAFC and NAGGC by human AA3; assay type: biochemical; conditions: other: substrate of human AA3; pH 7.5
Description: as §5, §6

[13] = lines expressing mutant (mut) KRas
[14] = lines expressing wild type (wt) or mutant (mut) KRas

Row | Molecule | toxicity for pancreatic cancer cells [1] | toxicity for pancreatic normal cells [2] | growth of colon cancer cell lines [3, 13] | FC level decreased by (HuH7 cells [4]) | level of NAFC (HuH7 cells [4]) | [FC]/[NAFC] ratio (HuH7 cells [4]) | toxicity (cell viability) (HuH7 cells [5]) | efficiency for pancreatic cell lines [1] | FC level (HepG2 cells [6]) | level of NAFC (HepG2 cells [6]) | [FC]/[NAFC] ratio (HepG2 cells [6]) | toxicity for normal vs cancer cell lines [2] | toxicity for normal vs cancer cell lines [7] | toxicity to normal primary hepatocytes [8] | level of the membrane associated Ras decreased by, % of control [9] | toxicity (cell viability) (HepG2 cells [10]) | growth of colon cancer cell lines [3, 14] | other results
1 | Cc1ccc(N2C(=O)/C(=C/c3cc([N+](=O)[O-])cc(Br)c3O)SC2=S)c(C)c1 [Inhibitor 3, (5Z)-5-(3-Bromo-2-hydroxy-5-nitrobenzylidene)-3-(2,4-dimethylphenyl)-2-thioxo-1,3-thiazolidin-4-one] | toxic | toxic | suppress growth | – | – | – | – | – | – | – | – | – | – | – | – | – | – | –
2 | O=c1nc(-c2ccccc2)sc2ccccc12 [Inhibitor 10, 2-Phenyl-4H-1,3-benzothiazin-4-one] | toxic | toxic | – | approximately 50% | significantly increased | ~0.85 | toxic | efficient | not significantly changed | significantly increased | ~1.6 | significantly less toxic | significantly less toxic | not toxic | ~50% | toxic | suppress growth | –
3 | COc1ccc(CSc2nc3cc(S(N)(=O)=O)ccc3n2C)cc1F [Inhibitor 11, 2-[(3-Fluoro-4-methoxybenzyl)sulfanyl]-1-methyl-1H-benzimidazole-5-sulfonamide] | toxic | toxic | suppress growth | approximately 50% | significantly increased | ~0.9 | toxic | – | not significantly changed | significantly increased | ~2.8 | – | – | significantly less toxic | ~50% | toxic | – | –
4 | Cc1ccc(-n2sc3ccccc3c2=O)cc1 [Inhibitor 21, 2-(4-methylphenyl)-1,2-benzothiazol-3-one] | toxic | toxic | – | – | – | – | – | efficient | – | – | – | significantly less toxic | significantly less toxic | – | – | – | suppress growth | –
5 | CC(=O)N[C@@H](CSC(Cl)(Cl)C(F)F)C(=O)O [N-Acetyl-S-(2,2-difluoro-1,1-dichloroethyl)-L-cysteine] | – | – | – | – | – | – | – | – | – | – | – | – | – | – | – | – | – | Vmax, times lower than N-acetyl-S-(2,2-dichloro-1,1-difluoroethyl)-L-cysteine (mAA3): ~30 times; affinity, times higher than N-acetyl-S-(2,2-dichloro-1,1-difluoroethyl)-L-cysteine (mAA3): ~18 times
6 | human AA3 (Homo sapiens) (protein, 6His (N); made in house; host or cells: E. coli) MCSLPVPREPLRRVAVTGGTHGNEMSGVYLARHWLHAPAELQRASFSAVPVLANPAATSGCRRYVDHDLNRTFTSSFLNSRPTPDDPYEVTRARELNQLLGPKASGQAFDFVLDLHNTTANMGTCLIAKSSHEVFAMHLCRHLQLQYPELSCQVFLYQRSGEESYNLDSVAKNGLGLELGPQPQGVLRADIFSRMRTLVATVLDFIELFNQGTAFPAFEMEAYRPVGVVDFPRTEAGHLAGTVHPQLQDRDFQPLQPGAPIFQMFSGEDLLYEGESTVYPVFINEAAYYEKGVAFVQTEKFTFTVPAMPALTPAPSPAS | – | – | – | – | – | – | – | – | – | – | – | – | – | – | – | – | – | Km [11]: 140 µM; kcat [11]: 7.2 s⁻¹; Km [12]: 25 µM; kcat [12]: 2 s⁻¹
